Holding throughout (type): cell-based
Holding throughout (set-up): unit not given here

One assay deals with Escherichia coli No. 255. In words: Minimum growth inhibitory concentration, Escherichia coli No. 255.
Assay [1] has as its system Pseudomonase cepacia M-0527. The experiment in a line: Minimum growth inhibitory concentration, Pseudomonase cepacia M-0527.
The next assay relates to Escherichia coli No. 29. In words: Minimum growth inhibitory concentration, Escherichia coli No. 29.
Assay [2] concerns Citrobacter freundii GN-346. The experiment in a line: Minimum growth inhibitory concentration, Citrobacter freundii GN-346.
Another assay has as its system Proteus vulgaris GN-76. The experiment in a line: Minimum growth inhibitory concentration, Proteus vulgaris GN-76.
Assay [3] deals with Pseudomonas aeruginosa IAM-1007. The experiment in a line: Minimum growth inhibitory concentration, Pseudomonas aeruginosa IAM-1007.
Assay [4] relates to Serratia marcescens No. 1. The experiment in a line: Minimum growth inhibitory concentration, Serratia marcescens No. 1.
The subject of a further assay is Proteus rettgeri GN-624. The experiment in a line: Minimum growth inhibitory concentration, Proteus rettgeri GN-624.
The test system of assay [5] is Staphylococcus aureus 209P JC-1. The experiment in a line: Minimum growth inhibitory concentration, Staphylococcus aureus 209P JC-1.
The test system of assay [6] is Enterobacter cloacae GN-471. The experiment in a line: Minimum growth inhibitory concentration, Enterobacter cloacae GN-471.
Assay [7] deals with Staphylococcus aureus Smith (1). In words: Minimum growth inhibitory concentration, Staphylococcus aureus Smith (1).
In assay [8] the test system is Pseudomonas aeruginosa E-2. In words: Minimum growth inhibitory concentration, Pseudomonas aeruginosa E-2.
Assay [9] concerns Klebsiella pneumoniae GN-69. In words: Minimum growth inhibitory concentration, Klebsiella pneumoniae GN-69.
Assay [10] has as its system Bacillus subtilis ATCC6633. The experiment in a line: Minimum growth inhibitory concentration, Bacillus subtilis ATCC6633.
In assay [11] the test system is Pseudomonas aeruginosa M-0148. The experiment in a line: Minimum growth inhibitory concentration, Pseudomonas aeruginosa M-0148.
Setting [12] is: Pseudomonas aeruginosa IAM-1007.
[13] abbreviates: Staphylococcus aureus 209P JC-1.
[14] abbreviates: Staphylococcus aureus Smith (1).

Like-named read-outs stand apart in the source and are kept apart here.

`Nc1nc(/C(=N/OCc2cc(=O)c(O)c[nH]2)C(=O)N[C@@H]2C(=O)N3C(C(=O)[O-])=C(C[n+]4ccccc4)CS[C@H]23)cs1` [A, reference compound]: the “Minimum Growth Inhibitory Concentration” value with Escherichia coli No. 255 amounted to 1.56; in assay [1] it was 0.39; in the assay on Escherichia coli No. 29 it was 0.20; in assay [2] (Citrobacter freundii GN-346), 25; in the assay on Proteus vulgaris GN-76 (Proteus vulgaris GN-76) it was 0.20; in [3] (setting [12]) it was 3.13. Besides, the “Minimum Growth Inhibitory Concentration” value is 0.20 in [4] (Serratia marcescens No. 1); 12.5 in the assay with Proteus rettgeri GN-624 (Proteus rettgeri GN-624); 3.13 in [5] (setting [13]); 3.13 in [6] (Enterobacter cloacae GN-471); 3.13 in assay [7] (setting [14]); 3.13 in [8] (Pseudomonas aeruginosa E-2). For the same compound, the “Minimum Growth Inhibitory Concentration” value in [9] (Klebsiella pneumoniae GN-69) turned out to be 0.20; in assay [10] (Bacillus subtilis ATCC6633), 1.56; in assay [11] (Pseudomonas aeruginosa M-0148) it was 25.
For `CC(C)(O/N=C(\C(=O)N[C@@H]1C(=O)N2C(C(=O)[O-])=C(C[n+]3ccccc3)CS[C@H]12)c1csc(N)n1)C(=O)O` [B, Ceftazidime, reference compound], the “Minimum Growth Inhibitory Concentration” value in [1] is 0.78; with Escherichia coli No. 29 it was 0.20; in [2] it was 50; in the assay with Proteus vulgaris GN-76, 0.05; in assay [3], 1.56; in [4] it was < 0.025. Besides, the “Minimum Growth Inhibitory Concentration” value in the assay with Proteus rettgeri GN-624 is on record as 0.39; in assay [5] it was 3.13; in assay [6], 3.13; in assay [7], 3.13; in [8] it was 1.56; in [9], 0.10. Besides, the entries for the “Minimum Growth Inhibitory Concentration” value in [10] and in assay [11] were 6.25 and 3.13, respectively.
For `C[n+]1ccc(SCC2=C(C(=O)[O-])N3C(=O)[C@@H](NC(=O)/C(=N\OCc4cc(=O)c(O)cn4O)c4csc(N)n4)[C@H]3SC2)cc1` [Example 1, (6R,7R)-7-[(Z)-2-(2-Aminothiazole-4-yl)-2-(1,5-dihydroxy-4-pyridone-2-yl)methoxyiminoacetamido]-3-(1-methylpyridinium-4-yl)thiomethyl-ceph-3em-4-carboxylate], the “Minimum Growth Inhibitory Concentration” value was 0.10 in the assay on Escherichia coli No. 255; < 0.025 in [1]; 0.05 in the assay with Escherichia coli No. 29; 12.5 in [2] (Citrobacter freundii GN-346); 0.05 in the assay on Proteus vulgaris GN-76 (Proteus vulgaris GN-76); 0.10 in [3] (setting [12]). Also, the “Minimum Growth Inhibitory Concentration” value in assay [4] (Serratia marcescens No. 1) was 0.05; in the assay with Proteus rettgeri GN-624 (Proteus rettgeri GN-624) it was 0.10; in [5] (setting [13]) it was 3.13; in [6] (Enterobacter cloacae GN-471), 1.56; in [7] (setting [14]) it was 3.13; in [8] (Pseudomonas aeruginosa E-2), 0.05. Further, the “Minimum Growth Inhibitory Concentration” value in assay [9] (Klebsiella pneumoniae GN-69) is < 0.025; in assay [10] (Bacillus subtilis ATCC6633), 12.5; in assay [11] (Pseudomonas aeruginosa M-0148), 0.20.
Take `Nc1nc(/C(=N/OCc2cc(=O)c(O)cn2O)C(=O)N[C@@H]2C(=O)N3C(C(=O)[O-])=C(CSc4cc[n+](CCO)cc4)CS[C@H]23)cs1` [Example 3, (6R,7R)-7-[(Z)-2-(2 Aminothiazole-4-yl)-2-(1,5-dihydroxy-4-pyridone-2-yl)methoxyiminoacetamido]-3-[1-(2-hydroxyethyl)pyridinium-4-yl]thiomethyl-ceph-3-em-4-carboxylate]: the “Minimum Growth Inhibitory Concentration” value is recorded as 0.20 in the assay on Escherichia coli No. 255; < 0.025 in assay [1]; 0.05 in the assay on Escherichia coli No. 29; 6.25 in assay [2] (Citrobacter freundii GN-346); 0.05 with Proteus vulgaris GN-76 (Proteus vulgaris GN-76); 0.10 in assay [3] (setting [12]). Besides, the “Minimum Growth Inhibitory Concentration” value in assay [4] (Serratia marcescens No. 1) is 0.10; with Proteus rettgeri GN-624 (Proteus rettgeri GN-624), 0.10; in assay [5] (setting [13]), 3.13; in [6] (Enterobacter cloacae GN-471) it was 1.56; in [7] (setting [14]) it was 6.25; in [8] (Pseudomonas aeruginosa E-2), 0.05. For the same compound, the “Minimum Growth Inhibitory Concentration” value was 0.05 in assay [9] (Klebsiella pneumoniae GN-69), 12.5 in assay [10] (Bacillus subtilis ATCC6633) and 0.20 in [11] (Pseudomonas aeruginosa M-0148).
Turning to `C[n+]1ccc(SCC2=C(C(=O)[O-])N3C(=O)[C@@H](NC(=O)/C(=N\OCc4cc(=O)c(O)cn4O)c4csc(N)n4)[C@H]3SC2)c2c1CCC2` [Example 4], the “Minimum Growth Inhibitory Concentration” value in the assay with Escherichia coli No. 255 is recorded as 0.20; in [1], < 0.025; in the assay on Escherichia coli No. 29 it was < 0.025; in assay [2] (Citrobacter freundii GN-346), 1.56; in the assay on Proteus vulgaris GN-76 (Proteus vulgaris GN-76), < 0.025; in assay [3] (setting [12]), 0.10. Moreover, the “Minimum Growth Inhibitory Concentration” value in assay [4] (Serratia marcescens No. 1) was 0.10; in the assay with Proteus rettgeri GN-624 (Proteus rettgeri GN-624) it was 0.20; in [5] (setting [13]), 3.13; in assay [6] (Enterobacter cloacae GN-471) it was 0.78; in assay [7] (setting [14]) it was 6.25; in [8] (Pseudomonas aeruginosa E-2), 0.10. The figures for the “Minimum Growth Inhibitory Concentration” value in [9] (Klebsiella pneumoniae GN-69), in assay [10] (Bacillus subtilis ATCC6633) and in [11] (Pseudomonas aeruginosa M-0148) were 0.10, 12.5 and 0.10, respectively.
Take `Cn1c(SCC2=C(C(=O)O)N3C(=O)[C@@H](NC(=O)/C(=N\OCc4cc(=O)c(O)cn4O)c4csc(N)n4)[C@H]3SC2)nnc(O)c1=O` [Example 9, (6R,7R)-7-[(Z)-2-(2-Aminothiazole-4-yl)-2-(1,5-dihydroxy-4-pyridone-2-yl)methoxyiminoacetamido]-3-(4,5-dihydro-4-methyl 5-oxo-6-hydroxy-1,2,4-triazine-3-yl)thiomethyl-ceph-3-em-4-carboxylic acid]: the “Minimum Growth Inhibitory Concentration” value in the assay on Escherichia coli No. 255 is listed as 0.20; in assay [1] it was < 0.025; in the assay with Escherichia coli No. 29 it was < 0.025; in [2] (Citrobacter freundii GN-346) it was 3.13; in the assay with Proteus vulgaris GN-76 (Proteus vulgaris GN-76) it was < 0.025; in assay [3] (setting [12]), 0.39. In addition, the “Minimum Growth Inhibitory Concentration” value in [4] (Serratia marcescens No. 1) came to 0.05; with Proteus rettgeri GN-624 (Proteus rettgeri GN-624), 0.20; in assay [5] (setting [13]), 6.25; in [6] (Enterobacter cloacae GN-471), 3.13; in [7] (setting [14]) it was 12.5; in assay [8] (Pseudomonas aeruginosa E-2) it was 0.05. Also, the “Minimum Growth Inhibitory Concentration” value in assay [9] (Klebsiella pneumoniae GN-69) is < 0.025; in [10] (Bacillus subtilis ATCC6633), 12.5; in assay [11] (Pseudomonas aeruginosa M-0148) it was 0.39.
As for `Nc1nc(/C(=N/OCc2cc(=O)c(O)cn2O)C(=O)N[C@@H]2C(=O)N3C(C(=O)[O-])=C(C[n+]4ccccc4)CS[C@H]23)cs1` [Example 14, (6R,7R)-7-[(Z)-2-(2-Aminothiazole-4-yl)-2-(1,5-dihydroxy-4-pyridone-2-yl)methoxyiminoacetamido]-3-pyridiniummethyl-ceph-3-em-4-carboxylate], the “Minimum Growth Inhibitory Concentration” value in the assay on Escherichia coli No. 255 is listed as 0.78; in assay [1], < 0.025; with Escherichia coli No. 29, 0.10; in [2] (Citrobacter freundii GN-346) it was 6.25; with Proteus vulgaris GN-76 (Proteus vulgaris GN-76), 0.20; in assay [3] (setting [12]), 0.39. Also, the “Minimum Growth Inhibitory Concentration” value in assay [4] (Serratia marcescens No. 1) turned out to be 0.10; in the assay with Proteus rettgeri GN-624 (Proteus rettgeri GN-624), 3.13; in [5] (setting [13]), 6.25; in assay [6] (Enterobacter cloacae GN-471) it was 3.13; in assay [7] (setting [14]), 6.25; in assay [8] (Pseudomonas aeruginosa E-2) it was 0.10. In addition, the “Minimum Growth Inhibitory Concentration” value was found to be 0.10 in [9] (Klebsiella pneumoniae GN-69), 12.5 in assay [10] (Bacillus subtilis ATCC6633) and 0.78 in [11] (Pseudomonas aeruginosa M-0148).

The record behind these values is patent publication US5028601A, “Cephalosporin compounds and antibacterial agents” (Meiji Saika Kaisha, Ltd., priority 1987, dated 1991).
